Assay results: patent US20110319416A1, “Subunit Selective NMDA Receptor Antagonists For The Treatment Of Neurological Conditions” (EMORY UNIVERSITY, priority 2009, published 2011)
Read-outs that look alike come from different tables or passages of the source.

Legend:
Type in all cases: cell-based
NR1/NR2B = NR1/NR2B (Rattus norvegicus, UniProt P35439+Q00960); assay: Two electrode voltage clamp, Xenopus oocytes expressing recombinant NR1/NR2B; settings: for remaining activity at 100 µM: read-out: 2B percent effect at the maximum tested concentration
NR1/NR2B, sequence (Q00960 27-1482, other chains not shown): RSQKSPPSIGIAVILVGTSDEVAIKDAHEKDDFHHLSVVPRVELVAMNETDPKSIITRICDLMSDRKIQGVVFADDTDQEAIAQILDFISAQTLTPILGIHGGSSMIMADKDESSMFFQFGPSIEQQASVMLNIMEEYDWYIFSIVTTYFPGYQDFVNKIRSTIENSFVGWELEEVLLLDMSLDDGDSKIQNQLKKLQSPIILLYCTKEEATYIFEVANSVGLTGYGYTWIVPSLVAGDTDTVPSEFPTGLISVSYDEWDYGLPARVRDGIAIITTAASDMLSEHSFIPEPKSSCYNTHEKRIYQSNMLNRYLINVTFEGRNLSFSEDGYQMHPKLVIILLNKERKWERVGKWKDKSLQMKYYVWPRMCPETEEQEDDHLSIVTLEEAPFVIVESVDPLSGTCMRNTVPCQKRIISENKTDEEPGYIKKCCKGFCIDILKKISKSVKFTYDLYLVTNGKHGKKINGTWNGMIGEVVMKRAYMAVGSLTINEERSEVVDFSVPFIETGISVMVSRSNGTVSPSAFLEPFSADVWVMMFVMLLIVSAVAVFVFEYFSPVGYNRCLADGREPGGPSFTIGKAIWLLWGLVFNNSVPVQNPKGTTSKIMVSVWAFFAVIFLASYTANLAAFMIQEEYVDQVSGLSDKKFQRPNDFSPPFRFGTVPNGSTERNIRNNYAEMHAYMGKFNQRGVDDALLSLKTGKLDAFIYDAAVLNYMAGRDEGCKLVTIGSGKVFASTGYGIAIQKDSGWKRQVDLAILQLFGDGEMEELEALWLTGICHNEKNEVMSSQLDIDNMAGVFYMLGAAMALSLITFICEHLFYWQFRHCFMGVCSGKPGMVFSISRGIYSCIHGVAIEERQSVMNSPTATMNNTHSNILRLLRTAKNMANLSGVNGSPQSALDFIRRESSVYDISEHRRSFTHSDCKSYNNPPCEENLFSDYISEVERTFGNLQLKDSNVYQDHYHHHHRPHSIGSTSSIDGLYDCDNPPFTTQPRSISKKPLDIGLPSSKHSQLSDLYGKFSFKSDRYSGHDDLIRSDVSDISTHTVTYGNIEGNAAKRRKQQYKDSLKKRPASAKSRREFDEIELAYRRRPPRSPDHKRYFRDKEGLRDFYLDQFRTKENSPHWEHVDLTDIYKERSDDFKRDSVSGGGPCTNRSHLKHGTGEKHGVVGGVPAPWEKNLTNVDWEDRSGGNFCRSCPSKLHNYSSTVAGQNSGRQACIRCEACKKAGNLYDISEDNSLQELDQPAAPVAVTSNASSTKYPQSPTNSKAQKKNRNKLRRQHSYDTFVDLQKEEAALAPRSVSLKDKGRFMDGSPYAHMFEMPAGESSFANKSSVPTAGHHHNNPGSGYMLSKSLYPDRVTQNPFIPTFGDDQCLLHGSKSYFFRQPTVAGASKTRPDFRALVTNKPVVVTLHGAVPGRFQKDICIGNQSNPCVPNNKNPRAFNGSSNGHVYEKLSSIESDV
Method: (§1) Quality of synthesized cRNA was assessed by gel electrophoresis, and quantity was estimated by spectroscopy and gel electrophoresis. Stage V and VI oocytes were surgically removed from the ovaries of large, well-fed and healthy Xenopus laevis anesthetized with 3-amino-benzoic acid ethyl ester (3 gm/l) as previously described. Clusters of isolated oocytes were incubated with 292 U/ml Worthington (Freehold, N.J.) type IV collagenase or 1.3 mg/ml collagenase (Life Technologies, Gaithersburg, MD; 17018-029) for 2 hr in Ca^2+-free solution comprised of (in mM) 115 NaCl, 2.5 KCl, and 10 HEPES, pH 7.5, with slow agitation to remove the follicular cell layer. Oocytes were then washed extensively in the same solution supplemented with 1.8 mM CaCl2 and maintained in Barth's solution comprised of (in mM): 88 NaCl, 1 KCl, 2.4 NaHCO3, 10 HEPES, 0.82 MgSO4, 0.33 Ca(NO3)2, and 0.91 CaCl2 and supplemented with 100 μg/m1 gentamycin, 10 μg/ml streptomycin, and 10 μg/ml penicillin. Oocytes were manually defolliculated and injected within 24 hrs of isolation with 3-5 ng of NR1 subunit cRNA and 7-10 ng of NR2 cRNA subunit in a 50 nl volume, or 5-10 ng of AMPA or kainate receptor cRNAs in a 50 nl volume, and incubated in Barth's solution at 18° C. for 1-7 d. Glass injection pipettes had tip sizes ranging from 10-20 microns, and were backfilled with mineral oil.
(§2) Two electrode voltage-clamp recordings were made 2-7 days post-injection as previously described. Oocytes were placed in a dual-track plexi-glass recording chamber with a single perfusion line that splits in a Y-configuration to perfuse two oocytes. Dual recordings were made at room temperature (23° C.) using two Warner OC725B two-electrode voltage clamp amplifiers, arranged as recommended by the manufacturer. Glass microelectrodes (1-10 Megaohms) were filled with 300 mM KCl (voltage electrode) or 3 M KCl (current electrode). The bath clamps communicated across silver chloride wires placed into each side of the recording chamber, both of which were assumed to be at a reference potential of 0 mV. Oocytes were perfused with a solution comprised of (in mM) 90 NaCl, 1 KCl, 10 HEPES, and 0.5 BaCl2; pH was adjusted by addition of 1-3 M NaOH of HC1 to 7.4. Oocytes were recorded under voltage clamp at −40 mV. […] In some experiments, 10 μM EDTA was obtained by adding a 1:1000 dilution of 10 mM EDTA, in order to chelate contaminant divalent ions such as Zn^2+. […] Concentration effect curves consisting of 4 to 8 concentrations were obtained in this manner. The baseline leak current at −40 mV was measured before and after recording, and the full recording linearly corrected for any change in leak current. […] Each experiment consisted of recordings from 3 to 10 oocytes obtained from a single frog. Results from multiple experiments were pooled, and the average percent responses at antagonist concentrations were fitted by the equation,
(§3) Percent Response=(100−minimum)/(1+([conc]/IC50)nH)+minimum

NR1/NR2A = NR1/NR2A (Rattus norvegicus, UniProt P35439+Q00959); assay: Two electrode voltage clamp, Xenopus oocytes expressing recombinant NR1/NR2A; settings: for remaining activity at 100 µM: read-out: 2A percent effect at the maximum tested concentration; for IC50: logistic fit, minimum forced to 0, read-out: 2A IC50
NR1/NR2A, sequence (Q00959 23-1464, other chains not shown): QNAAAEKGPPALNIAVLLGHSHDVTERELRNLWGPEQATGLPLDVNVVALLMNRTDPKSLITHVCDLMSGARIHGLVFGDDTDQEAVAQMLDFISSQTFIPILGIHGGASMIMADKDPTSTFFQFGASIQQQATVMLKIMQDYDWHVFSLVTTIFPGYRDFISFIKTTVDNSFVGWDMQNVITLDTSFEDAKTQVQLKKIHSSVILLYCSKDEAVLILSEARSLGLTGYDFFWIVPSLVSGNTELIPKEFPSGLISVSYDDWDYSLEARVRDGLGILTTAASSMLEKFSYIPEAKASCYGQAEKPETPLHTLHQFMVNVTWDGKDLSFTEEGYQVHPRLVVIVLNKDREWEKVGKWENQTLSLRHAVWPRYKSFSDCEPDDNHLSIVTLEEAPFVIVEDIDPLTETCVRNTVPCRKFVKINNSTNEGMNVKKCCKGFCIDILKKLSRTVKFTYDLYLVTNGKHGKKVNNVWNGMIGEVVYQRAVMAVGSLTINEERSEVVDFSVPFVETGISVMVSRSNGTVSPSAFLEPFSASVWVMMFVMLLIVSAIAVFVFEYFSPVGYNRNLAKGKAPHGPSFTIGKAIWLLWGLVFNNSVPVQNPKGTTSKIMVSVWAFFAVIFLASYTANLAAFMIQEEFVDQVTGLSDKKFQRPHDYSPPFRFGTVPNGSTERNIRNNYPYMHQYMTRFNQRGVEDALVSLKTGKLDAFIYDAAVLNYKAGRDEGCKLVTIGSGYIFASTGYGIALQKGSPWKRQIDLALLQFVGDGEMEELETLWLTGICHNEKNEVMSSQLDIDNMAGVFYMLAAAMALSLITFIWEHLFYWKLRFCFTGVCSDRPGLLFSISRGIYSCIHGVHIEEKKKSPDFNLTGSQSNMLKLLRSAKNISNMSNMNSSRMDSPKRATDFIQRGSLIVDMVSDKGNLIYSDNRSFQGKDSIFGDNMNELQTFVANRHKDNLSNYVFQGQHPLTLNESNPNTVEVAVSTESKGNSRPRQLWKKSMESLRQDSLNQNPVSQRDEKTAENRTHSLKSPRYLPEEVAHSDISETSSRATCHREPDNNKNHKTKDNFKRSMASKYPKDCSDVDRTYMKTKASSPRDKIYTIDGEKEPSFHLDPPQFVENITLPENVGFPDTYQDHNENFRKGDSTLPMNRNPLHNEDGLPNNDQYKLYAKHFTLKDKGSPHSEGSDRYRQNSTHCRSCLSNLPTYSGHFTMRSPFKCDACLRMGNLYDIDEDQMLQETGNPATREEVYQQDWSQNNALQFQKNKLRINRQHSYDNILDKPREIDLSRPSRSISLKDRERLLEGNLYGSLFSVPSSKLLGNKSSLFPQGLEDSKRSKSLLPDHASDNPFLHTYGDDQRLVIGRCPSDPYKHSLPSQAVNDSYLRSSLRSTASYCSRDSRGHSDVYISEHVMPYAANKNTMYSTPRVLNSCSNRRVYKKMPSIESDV
Method: as §1, §2, §3

NR1/NR2D = NR1/NR2D (Rattus norvegicus, UniProt P35439+Q62645); assay: Two electrode voltage clamp, Xenopus oocytes expressing recombinant NR1/NR2D; settings: for remaining activity at 100 µM: read-out: 2D percent effect at the maximum tested concentration
NR1/NR2D, sequence (Q62645 28-1323, other chains not shown): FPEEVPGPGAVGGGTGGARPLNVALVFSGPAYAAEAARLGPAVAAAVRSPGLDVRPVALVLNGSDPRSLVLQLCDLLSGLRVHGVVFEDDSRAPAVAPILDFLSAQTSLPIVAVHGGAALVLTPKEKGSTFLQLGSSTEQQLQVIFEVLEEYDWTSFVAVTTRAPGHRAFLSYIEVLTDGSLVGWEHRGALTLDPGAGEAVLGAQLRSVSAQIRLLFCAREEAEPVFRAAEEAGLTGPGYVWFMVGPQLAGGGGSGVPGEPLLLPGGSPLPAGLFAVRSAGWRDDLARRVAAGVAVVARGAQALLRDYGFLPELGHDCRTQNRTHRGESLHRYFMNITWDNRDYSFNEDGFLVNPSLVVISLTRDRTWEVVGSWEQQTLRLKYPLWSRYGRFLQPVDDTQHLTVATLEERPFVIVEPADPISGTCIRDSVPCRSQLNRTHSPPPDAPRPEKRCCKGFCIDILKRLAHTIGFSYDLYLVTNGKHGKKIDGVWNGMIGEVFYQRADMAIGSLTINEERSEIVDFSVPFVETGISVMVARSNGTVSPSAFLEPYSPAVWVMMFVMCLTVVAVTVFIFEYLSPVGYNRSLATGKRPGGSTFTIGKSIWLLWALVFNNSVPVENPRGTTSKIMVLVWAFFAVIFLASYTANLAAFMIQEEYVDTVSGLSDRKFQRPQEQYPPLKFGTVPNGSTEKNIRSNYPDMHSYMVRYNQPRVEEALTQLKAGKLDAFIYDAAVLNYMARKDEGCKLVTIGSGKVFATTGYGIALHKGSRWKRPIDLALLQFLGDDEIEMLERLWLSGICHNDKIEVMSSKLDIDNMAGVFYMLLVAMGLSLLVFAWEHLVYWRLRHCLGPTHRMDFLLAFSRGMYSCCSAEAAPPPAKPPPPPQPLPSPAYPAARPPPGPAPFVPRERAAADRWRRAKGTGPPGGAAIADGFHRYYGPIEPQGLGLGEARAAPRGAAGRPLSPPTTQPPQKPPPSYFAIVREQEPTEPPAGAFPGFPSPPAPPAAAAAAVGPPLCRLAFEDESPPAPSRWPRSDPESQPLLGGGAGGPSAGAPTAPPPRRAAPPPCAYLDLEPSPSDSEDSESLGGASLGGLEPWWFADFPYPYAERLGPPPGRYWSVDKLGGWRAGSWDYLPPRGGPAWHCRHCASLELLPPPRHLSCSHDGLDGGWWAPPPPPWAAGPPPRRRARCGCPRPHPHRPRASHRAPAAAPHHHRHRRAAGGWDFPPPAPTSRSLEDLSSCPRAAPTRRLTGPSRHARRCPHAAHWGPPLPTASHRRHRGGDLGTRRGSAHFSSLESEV
Method: as §1, §2, §3

NR1/NR2C = NR1/NR2C (Rattus norvegicus, UniProt P35439+Q00961); assay: Two electrode voltage clamp, Xenopus oocytes expressing recombinant NR1/NR2C; settings: for remaining activity at 100 µM: read-out: 2C percent effect at the maximum tested concentration
Method: as §1, §2, §3

[1] = logistic fit, minimum forced to 0, read-out: 2D IC50
[2] = logistic fit, minimum forced to 0, read-out: 2B IC50
[3] = logistic fit, minimum forced to 0, read-out: 2C IC50

SMILES: CCC(CC)C(=O)Oc1ccc(C(=O)Nc2cccc3ccccc23)cc1 [1063-9]
- remaining activity at 100 µM (NR1/NR2B): 98%
- remaining activity at 100 µM (NR1/NR2A; at 100 μM): 111%
- remaining activity at 100 µM (NR1/NR2D): 86%
- remaining activity at 100 µM (NR1/NR2C): 94%

SMILES: O=C(O)CCC(=O)N1N=C(c2c(-c3ccccc3)c3cc(Br)ccc3[nH]c2=O)CC1c1ccccc1 (centres unmarked) [compound 1183]
- IC50 (NR1/NR2D; [1]): 20 µM

SMILES: O=C(O)CCC(=O)N1N=C(c2c(-c3ccccc3)c3cc(Br)ccc3[nH]c2=O)CC1c1ccccc1F (centres unmarked) [compound 1178]
- IC50 (NR1/NR2D; [1]): 21 µM

SMILES: CC(C)N(C(=O)Oc1ccc(C(=O)Nc2ccc3cc[nH]c3c2)cc1)C(C)C [1063-15]
- IC50 (NR1/NR2B): 44 µM
- remaining activity at 100 µM (NR1/NR2A): 74%
- IC50 (NR1/NR2D): 12 µM
- IC50 (NR1/NR2C): 11 µM

SMILES: CCCCN(CCCC)C(=O)Oc1ccc(C(=O)Nc2cccc3ccccc23)cc1 [1063-8]
- remaining activity at 100 µM (NR1/NR2B): 88%
- remaining activity at 100 µM (NR1/NR2A; at 100 μM): 135%
- remaining activity at 100 µM (NR1/NR2D): 87%

SMILES: CC(C)N(C(=O)Oc1ccc(C(=O)Oc2cccc3c(N)cccc23)cc1)C(C)C [1063-14]
- remaining activity at 100 µM (NR1/NR2B): 95%
- remaining activity at 100 µM (NR1/NR2A; at 100 μM): 104%
- remaining activity at 100 µM (NR1/NR2D): 75%
- remaining activity at 100 µM (NR1/NR2C): 85%

SMILES: Cc1ccc(C2CC(c3c(-c4ccccc4)c4cc(Br)ccc4[nH]c3=O)=NN2C(=O)CCC(=O)O)cc1 (centres unmarked) [compound 1185]
- IC50 (NR1/NR2B; [2]): 59 µM
- IC50 (NR1/NR2A): 140 µM
- IC50 (NR1/NR2D; [1]): 9 µM
- IC50 (NR1/NR2C; [3]): 16 µM

SMILES: CN(C)C(=O)Oc1ccc(C(=O)Nc2cccc3ccccc23)cc1 [1063-3]
- IC50 (NR1/NR2B): 1450 µM
- remaining activity at 100 µM (NR1/NR2A): 110%
- IC50 (NR1/NR2D): 194 µM
- IC50 (NR1/NR2C): 619 µM

SMILES: O=C(Nc1cccc2ccccc12)c1ccc(OC(=O)N2CCCCC2)cc1 [1063-7]
- remaining activity at 100 µM (NR1/NR2B): 98%
- remaining activity at 100 µM (NR1/NR2A; at 100 μM): 135%
- remaining activity at 100 µM (NR1/NR2D): 84%

SMILES: O=C(Nc1cccc2ccccc12)c1ccc(OC(=S)N2CCOCC2)cc1 [compound 1374]
- IC50 (NR1/NR2D; [1]): > 1000 µM

SMILES: O=C(O)CCC(=O)N1N=C(c2c(-c3ccccc3)c3cc(Br)ccc3[nH]c2=O)CC1c1ccc(Br)cc1 (centres unmarked) [compound 997]
- IC50 (NR1/NR2B; [2]): 19 µM
- IC50 (NR1/NR2A): 78 µM
- IC50 (NR1/NR2D; [1]): 3 µM
- IC50 (NR1/NR2C; [3]): 5 µM

SMILES: O=C(Nc1cccc2ccccc12)c1ccc(OC(=O)N2CCCC2)cc1 [1063-6]
- IC50 (NR1/NR2B; [2]): 502 µM
- remaining activity at 100 µM (NR1/NR2A; at 100 μM): 87%
- IC50 (NR1/NR2D; [1]): 257 µM
- IC50 (NR1/NR2C; [3]): 135 µM

SMILES: CCN(CC)C(=O)Oc1ccccc1C(=O)Nc1cccc2ccccc12 [1063-25]
- remaining activity at 100 µM (NR1/NR2B): 88%
- remaining activity at 100 µM (NR1/NR2A; at 100 μM): 88%
- remaining activity at 100 µM (NR1/NR2D): 91%
- remaining activity at 100 µM (NR1/NR2C): 83%

SMILES: O=C(O)CCC(=O)N1N=C(c2c(-c3ccccc3)c3cc(Cl)ccc3[nH]c2=O)CC1c1ccccc1 (centres unmarked) [compound 1149]
- IC50 (NR1/NR2D; [1]): 32 µM

SMILES: O=C(Nc1cccc2ccccc12)c1ccc(Oc2nc(-c3ccccc3)cs2)cc1 [1063-22]
- remaining activity at 100 µM (NR1/NR2B): 91%
- remaining activity at 100 µM (NR1/NR2A; at 100 μM): 96%
- remaining activity at 100 µM (NR1/NR2D): 88%
- remaining activity at 100 µM (NR1/NR2C): 92%

SMILES: CCN(CC)C(=O)Oc1cccc(C(=O)Nc2cccc3ccccc23)c1 [1063-24]
- remaining activity at 100 µM (NR1/NR2B): 95%
- remaining activity at 100 µM (NR1/NR2A; at 100 μM): 84%
- remaining activity at 100 µM (NR1/NR2D): 84%
- remaining activity at 100 µM (NR1/NR2C): 93%

SMILES: CCN(CC)C(=O)Oc1ccc(C(=O)Nc2cccc3[nH]ccc23)cc1 [1063-26]
- IC50 (NR1/NR2B): 560 µM
- remaining activity at 100 µM (NR1/NR2A): 88%
- IC50 (NR1/NR2D): 6 µM
- IC50 (NR1/NR2C): 8 µM

SMILES: O=C(Nc1cccc2ccccc12)c1ccc(Oc2nc3ccccc3s2)cc1 [1063-23]
- remaining activity at 100 µM (NR1/NR2B): 85%
- remaining activity at 100 µM (NR1/NR2A; at 100 μM): 91%
- remaining activity at 100 µM (NR1/NR2D): 91%
- remaining activity at 100 µM (NR1/NR2C): 89%

SMILES: CCN(CC)C(=O)Oc1ccc(C(=O)Nc2cc(C)cc3c2NCC3)cc1 [1063-32]
- IC50 (NR1/NR2B): 215 µM
- remaining activity at 100 µM (NR1/NR2A): 81%
- IC50 (NR1/NR2D): 8 µM
- IC50 (NR1/NR2C): 20 µM

SMILES: O=C(O)c1ccc(C(=O)Nc2cccc3cc[nH]c23)cc1 [1063-28]
- remaining activity at 100 µM (NR1/NR2B): 95%
- IC50 (NR1/NR2A): 245 µM
- remaining activity at 100 µM (NR1/NR2D): 89%
- remaining activity at 100 µM (NR1/NR2C): 98%

SMILES: C=CCN(CC=C)C(=S)Oc1ccc(C(=O)Nc2cccc3ccccc23)cc1 [compound 1380]
- IC50 (NR1/NR2D; [1]): 279 µM

SMILES: O=c1[nH]c2ccc(Br)cc2c(-c2ccccc2)c1C1=NNC(c2ccc(F)cc2)C1 (centres unmarked) [compound 1248]
- IC50 (NR1/NR2D; [1]): > 300 µM
